The source of these data is ChEMBL document CHEMBL1133110, “bis-Quinolinium cyclophanes: 8,14-diaza-1,7(1, 4)-diquinolinacyclotetradecaphane (UCL 1848), a highly potent and selective, nonpeptidic blocker of the apamin-sensitive Ca(2+)-activated K(+) channel” (J Med Chem, 2000).

Data set [1] is described as follows: Equieffective molar ratio is ratio of the concentration of the test compound and dequalinium that cause 50% inhibition of AHP.
Data set [2] is filed under the species Rattus norvegicus. Kind of data set: tested for their ability to inhibit the after- hyperpolarization in cultured rat sympathetic neurons. The format is functional, Sympathetic neuron.
The species entered for data set [3] is Rattus norvegicus. Kind of data set: tested for their ability to inhibit the after- hyperpolarization (AHP) in cultured rat sympathetic neurons. In kind it is functional. Particulars: Sympathetic neuron.
Data set [4] is filed under the species Rattus norvegicus. Kind of data set: tested for their ability to inhibit the after- hyperpolarization in cultured rat sympathetic neurons (omitting the comparison with dequalinium). In kind it is functional. The conditions noted are these: Sympathetic neuron.
[5] abbreviates: Rattus norvegicus, Sympathetic neuron.

Consider `c1cc2cc(c1)C[n+]1ccc(c3ccccc31)NCc1ccc(cc1)CNc1cc[n+](c3ccccc13)C2`, for which the EMR in data set [1] turned out to be 0.01.
For `[I-].[I-].c1ccc2c(c1)c1cc[n+]2CCC[n+]2ccc(c3ccccc32)NCCCN1` (stereo in doubt; form 1), the EMR in data set [1] was determined as 0.27. In the data set filed under Rattus norvegicus [2] (sympathetic neuron), half-maximal inhibition (IC50) was put at 130 nM.
As to `[I-].[I-].c1ccc2c(c1)c1cc[n+]2CCCC[n+]2ccc(c3ccccc32)NCCCCN1`, in data set [1], the EMR is given as 0.09. For the same compound, in the data set filed under Rattus norvegicus [2] (setting [5]), the IC50 was determined as 40 nM.
`Cc1cc(N)c2ccccc2[n+]1CCCCCCCCCC[n+]1c(C)cc(N)c2ccccc21.[Cl-].[Cl-]` [DEQUALINIUM CHLORIDE]: the EMR in data set [1] is on record as 1. The same compound gave an IC50 in the data set filed under Rattus norvegicus [3] of 490 nM.
`[I-].[I-].c1ccc2c(c1)c1cc[n+]2CCCCCCCC[n+]2ccc(c3ccccc32)NCCCCCCCCN1`: the EMR in data set [1] stood at 0.43. The compound also had an IC50 in the data set filed under Rattus norvegicus [2] (setting [5]) of 190 nM.
In the case of `[I-].[I-].c1ccc2c(c1)c1cc[n+]2CCCCC[n+]2ccc(c3ccccc32)NCCCCCN1`, in data set [1], the EMR was 0.003. Moreover, the results for the IC50 in the data set filed under Rattus norvegicus [4] and in the data set listed under Rattus norvegicus [2] (setting [5]) were 2.7 nM and 2 nM, respectively.
`[I-].[I-].c1ccc2c(c1)c1cc[n+]2CCC[n+]2ccc(c3ccccc32)NCCCN1` (stereo in doubt; form 2): the EMR in data set [1] amounted to 0.77. The compound also showed an IC50 in the data set listed under Rattus norvegicus [2] (sympathetic neuron) of 380 nM.
Take `[I-].[I-].c1ccc2c(c1)c1cc[n+]2CCCCCC[n+]2ccc(c3ccccc32)NCCCCCCN1`: the EMR in data set [1] came to 0.1. In the data set listed under Rattus norvegicus [2] (setting [5]), this compound showed an IC50 of 60 nM.
The like results for `[I-].[I-].c1ccc2c(c1)c1cc[n+]2CCCCCCCCCC[n+]2ccc(c3ccccc32)NCCCCCCCCCCN1` were, in that order, 0.44 and 260 nM.

By IC50 is commonly meant the concentration at which inhibition is half-maximal. Lower therefore signals higher potency.
